Results on eight compounds are retold here after patent US20220372067A1, “3.ALPHA.-HYDROXY-17.BETA.-AMIDE NEUROACTIVE STEROIDS AND COMPOSITIONS THEREOF” (SAGE THERAPEUTICS, INC., priority 2018, published 2022).

This assay addresses GABAA receptor (TBPS binding site), rat brain cortical membranes. The assay can be described thus: [35S]-TBPS binding assay, rat brain cortical membranes in the presence of 5 mM GABA. The note with it: inhibition of 3 nM [35S]-TBPS binding. The protocol: [^35S]-t-Butylbicyclophosphorothionate (TBPS) binding assays using rat brain cortical membranes in the presence of 5 mM GABA has been described (Gee et al, J. Pharmacol. Exp. Ther. 1987, 241, 346-353; Hawkinson et al, Mol. Pharmacol. 1994, 46, 977-985; Lewin, A. H et al., Mol. Pharmacol. 1989, 35, 189-194).
Briefly, cortices are rapidly removed following decapitation of carbon dioxide-anesthetized Sprague-Dawley rats (200-250 g). The cortices are homogenized in 10 volumes of ice-cold 0.32 M sucrose using a glass/teflon homogenizer and centrifuged at 1500×g for 10 min at 4° C. The resultant supernatants are centrifuged at 10,000×g for 20 min at 4° C. to obtain the P2 pellets. The P2 pellets are resuspended in 200 mM NaCl/50 mM Na—K phosphate pH 7.4 buffer and centrifuged at 10,000×g for 10 min at 4° C. This washing procedure is repeated twice and the pellets are resuspended in 10 volumes of buffer. Aliquots ([…]) of the membrane suspensions are incubated with 3 nM [^35S]-TBPS and […] aliquots of test drug dissolved in dimethyl sulfoxide (DMSO) (final 0.5%) in the presence of 5 mM GABA. The incubation is brought to a final volume of 1.0 mL with buffer. Nonspecific binding is determined in the presence of […] and ranged from 15 to 25%. Following a 90 min incubation at room temp, the assays are terminated by filtration through glass fiber filters (Schleicher and Schuell No. 32) using a cell harvester (Brandel) and rinsed three times with ice-cold buffer. Filter bound radioactivity is measured by liquid scintillation spectrometry. Non-linear curve fitting of the overall data for each drug averaged for each concentration is done using Prism (GraphPad). […] The concentration of test compound producing 50% inhibition (IC50) of specific binding and the maximal extent of inhibition (Imax) are determined for the individual experiments with the same model used for the overall data and then the means±SEM.s of the individual experiments are calculated.
Various compounds are or can be screened to determine their potential as modulators of [^35S]-TBPS binding in vitro. These assays are or can be performed in accordance with the above
As a reminder, the IC50 is the concentration needed to halve the response being measured. Turning to `CCOC[C@@]1(O)CC[C@H]2[C@H](CC[C@@H]3[C@@H]2CC[C@]2(C)[C@@H](C(=O)Nc4ccnn4C4CCCC4)CC[C@@H]32)C1` [Example 55], the IC50 is below 100 nM.

On to `COC[C@@]1(O)CC[C@H]2[C@@H](CC[C@@H]3[C@@H]2CC[C@]2(C)[C@@H](C(=O)Nc4cccc(C)n4)CC[C@@H]32)C1` [Example 7, (3R,5S,8R,9R,10S,13S,14S,17S)-3-hydroxy-3-(methoxymethyl)-13-methyl-N-(6-methylpyridin-2-yl)hexadecahydro-1H-cyclopenta[a]phenanthrene-17-carboxamide], for which the IC50 is below 100 nM.

On to `COC[C@@]1(O)CC[C@@]2(C)[C@@H](CC[C@@H]3[C@@H]2CC[C@]2(C)[C@@H](C(=O)Nc4cccnc4C)CC[C@@H]32)C1` [Example 32], for which the IC50 was below 100 nM.

As for `COC[C@@]1(O)CC[C@H]2[C@H](CC[C@@H]3[C@@H]2CC[C@]2(C)[C@@H](C(=O)Nc4ccc(F)cn4)CC[C@@H]32)C1` [Example 10, (3R,5R,8R,9R,10S,13S,14S,17S)-N-(5-fluoropyridin-2-yl)-3-hydroxy-3-(methoxymethyl)-13-methylhexadecahydro-1H-cyclopenta[a]phenanthrene-17-carboxamide], the IC50 is below 100 nM.

On to `CCOC[C@@]1(O)CC[C@@]2(CC)[C@H](CC[C@H]3[C@@H]4CC[C@H](C(=O)Nc5cc(C#N)n(C)n5)[C@@]4(C)CC[C@@H]32)C1` [Example 36], for which the IC50 was below 100 nM.

Turning to `CCC[C@@]1(O)CC[C@H]2[C@H](CC[C@@H]3[C@@H]2CC[C@]2(C)[C@@H](C(=O)Nc4ccc(C#N)cn4)CC[C@@H]32)C1` [Example 67, (3R,5R,8R,9R,10S,13S,14S,17S)-N-(5-cyanopyridin-2-yl)-3-hydroxy-13-methyl-3-propylhexadecahydro-1H-cyclopenta[a]phenanthrene-17-carboxamide], the IC50 was below 100 nM.

Regarding `COC[C@@]1(O)CC[C@H]2[C@H](CC[C@@H]3[C@@H]2CC[C@]2(C)[C@@H](C(=O)Nc4ccc(-c5ncc(F)cn5)nc4C)CC[C@@H]32)C1` [Example 48], the IC50 was below 100 nM.

With `CCOC[C@@]1(O)CC[C@H]2[C@H](CC[C@@H]3[C@@H]2CC[C@]2(C)[C@@H](C(=O)Nc4cncc(C)n4)CC[C@@H]32)C1` [Example 24], the IC50 is below 100 nM.
